Results: DBAASP
≈ marks a conversion by molar mass, not a printed value. Each block holds one compound with its values, some of them ahead of it.

Columns and labels:
Assay in all cases: ≥ marks a high value that may be exact or a test limit, other limits are often not marked, values filed in µg/mL are converted to µM
[1] = test system: Acinetobacter baumannii ATCC BAA-747
[2] = test system: Enterococcus faecium ATCC 700221
[3] = test system: Escherichia coli ATCC 25922
[4] = test system: Klebsiella pneumoniae ATCC 700603
[5] = test system: Pseudomonas aeruginosa ATCC 27853
[6] = test system: Salmonella enterica ATCC 6539
[7] = test system: Staphylococcus aureus ATCC 43300
[8] = test system: Bacillus subtilis ATCC 6633
[9] = test system: Candida albicans CGMCC 2.2411
[10] = test system: Enterococcus faecalis CVCC 3936
[11] = test system: Escherichia coli CVCC 1515
[12] = test system: Escherichia coli CVCC 195
[13] = test system: Listeria ivanovii ATCC 19119
[14] = test system: Pseudomonas aeruginosa CICC 10419
[15] = test system: Salmonella enterica subsp. enterica serovar Pullorum CVCC 1809
[16] = test system: Salmonella enterica subsp. enterica serovar Pullorum CVCC 533
[17] = test system: Salmonella enterica subsp. enterica serovar Typhimurium ATCC 14028
[18] = test system: Streptococcus suis CVCC 606
[19] = test system: Pseudomonas aeruginosa Ps4
[20] = test system: Acinetobacter baumannii AB1
[21] = test system: Candida albicans ATCC 90029
[22] = test system: Candida albicans CA1
[23] = test system: Candida krusei ATCC 40147
[24] = test system: Candida parapsilosis ATCC 90018
[25] = test system: Candida tropicalis ATCC 750
[26] = test system: Escherichia coli EC16
[27] = test system: Escherichia coli EC18
[28] = test system: Klebsiella pneumoniae KP1
[29] = test system: Pseudomonas aeruginosa PA14
[30] = test system: Escherichia coli BL21
[31] = test system: Pseudomonas aeruginosa PAO1
[32] = test system: Streptococcus pyogenes M1T1 5448
[33] = test system: Cryptococcus neoformans ATCC 32264
[34] = test system: Acinetobacter baumannii ATCC 7978
[35] = test system: Candida albicans ATCC 10231
[36] = test system: Klebsiella pneumoniae WGLW2
[37] = test system: Staphylococcus aureus ATCC 29231
[38] = test system: Staphylococcus aureus MW2
[39] = test system: Candida albicans
[40] = test system: Staphylococcus aureus ATCC 49476
[41] = test system: Staphylococcus aureus MR

MIC [1]: 11 µM (≈ 16.1 µg/mL)
MIC [2]: 3 µM (≈ 4.39 µg/mL)
MIC [3]: 3 µM (≈ 4.39 µg/mL)
MIC [4]: 11 µM (≈ 16.1 µg/mL)
MIC [5]: 11 µM (≈ 16.1 µg/mL)
MIC [6]: 1 µM (≈ 1.46 µg/mL)
MIC [7]: 11 µM (≈ 16.1 µg/mL)
SMILES: NCCCC[C@H](NC(=O)CNC(=O)CNC(=O)[C@H](CCCN=C(N)N)NC(=O)[C@H](CS)NC(=O)[C@H](Cc1ccc(O)cc1)NC(=O)[C@H](Cc1c[nH]c2ccccc12)NC(=O)[C@H](CCCN=C(N)N)NC(=O)[C@H](Cc1c[nH]c2ccccc12)NC(=O)[C@H](Cc1cnc[nH]1)NC(=O)CNC(=O)CN)C(N)=O [GGHWRWYCRGGK]

MIC [8]: 18.1 µM (≈ 32 µg/mL)
MIC [9]: ≥ 36.3 µM
MIC [10]: 18.1 µM (≈ 32 µg/mL)
MIC [11]: 4.53 µM (≈ 8 µg/mL)
MIC [12]: 4.53 µM (≈ 8 µg/mL)
MIC [13]: 4.53 µM (≈ 8 µg/mL)
MIC [14]: ≥ 36.3 µM
MIC [15]: 9.06 µM (≈ 16 µg/mL)
MIC [16]: 18.1 µM (≈ 32 µg/mL)
MIC [17]: 9.06 µM (≈ 16 µg/mL)
MIC [7]: 36.3 µM (≈ 64 µg/mL)
MIC [18]: ≥ 36.3 µM
SMILES: CC(C)[C@H](NC(=O)[C@H](CCCCN)NC(=O)[C@H](Cc1c[nH]c2ccccc12)NC(=O)[C@H](CCCN=C(N)N)NC(=O)CNC(=O)[C@H](CCC(N)=O)NC(=O)[C@@H](NC(=O)[C@@H](N)CCCN=C(N)N)C(C)C)C(=O)N[C@@H](CCCN=C(N)N)C(=O)N[C@@H](C)C(=O)N[C@@H](CO)C(=O)N[C@@H](Cc1ccccc1)C(=O)N[C@@H](Cc1ccccc1)C(=O)N[C@@H](CCCCN)C(=O)O [RVQGRWKVRASFFK]

MIC [19]: ≥ 178 µM
SMILES: CC[C@H](C)[C@H](NC(=O)[C@H](CC(N)=O)NC(=O)[C@H](CCCN=C(N)N)NC(=O)[C@H](CCC(N)=O)NC(=O)[C@H](Cc1c[nH]c2ccccc12)NC(=O)[C@@H](N)Cc1ccccc1)C(=O)N[C@@H](CCCN=C(N)N)C(=O)N[C@@H](CCCCN)C(=O)N[C@H](C(=O)N[C@@H](CCCN=C(N)N)C(N)=O)C(C)C [FWQRNIRKVR]

MIC [20]: 10 µM (≈ 31.6 µg/mL)
MIC [21]: 10 µM (≈ 31.6 µg/mL)
MIC [22]: 5 µM (≈ 15.8 µg/mL)
MIC [23]: 2.5 µM (≈ 7.91 µg/mL)
MIC [24]: 10 µM (≈ 31.6 µg/mL)
MIC [25]: 10 µM (≈ 31.6 µg/mL)
MIC [26]: 5 µM (≈ 15.8 µg/mL)
MIC [27]: 10 µM (≈ 31.6 µg/mL)
MIC [28]: 5 µM (≈ 15.8 µg/mL)
MIC [29]: 5 µM (≈ 15.8 µg/mL)
SMILES: CC[C@H](C)[C@H](NC(=O)CNC(=O)[C@H](C)NC(=O)[C@H](CCCCN)NC(=O)CNC(=O)[C@H](CCSC)NC(=O)[C@H](CCC(=O)O)NC(=O)[C@H](CCCCN)NC(=O)[C@@H](NC(=O)[C@@H](NC(=O)[C@H](CCCCN)NC(=O)[C@@H](NC(=O)[C@@H](NC(=O)[C@H](CCCCN)NC(=O)[C@H](CC(=O)O)NC(=O)[C@H](CCCCN)NC(=O)[C@H](Cc1cnc[nH]1)NC(=O)[C@H](CCCCN)NC(=O)[C@H](CC(N)=O)NC(=O)[C@H](Cc1c[nH]c2ccccc12)NC(=O)[C@H](Cc1c[nH]c2ccccc12)NC(=O)[C@H](CC(=O)O)NC(=O)[C@H](CCCCN)NC(=O)[C@H](CC(C)C)NC(=O)CN)[C@@H](C)CC)C(C)C)C(C)C)C(C)C)C(=O)N[C@@H](CC(N)=O)C(=O)N[C@@H](C)C(=O)N[C@@H](C)C(N)=O [GLKDWWNKHKDKIVKVVKEMGKAGINAA]

MIC [30]: 0.0156 µM (≈ 0.047 µg/mL)
MIC [31]: 32 µM (≈ 96.5 µg/mL)
MIC [32]: 0.125 µM (≈ 0.377 µg/mL)
SMILES: CC[C@H](C)[C@H](NC(=O)[C@H](Cc1c[nH]c2ccccc12)NC(=O)[C@H](C)NC(=O)[C@H](CCCN=C(N)N)NC(=O)[C@H](CCCCN)NC(=O)CNC(=O)[C@H](CCCCN)NC(=O)[C@H](CCC(=O)O)NC(=O)[C@H](CCC(N)=O)NC(=O)[C@@H](NC(=O)[C@H](CCCCN)NC(=O)[C@H](CCCCN)NC(=O)[C@H](CCCCN)NC(=O)[C@H](CC(C)C)NC(=O)[C@H](CCCN=C(N)N)NC(=O)[C@H](CCC(N)=O)NC(=O)[C@H](Cc1ccccc1)NC(=O)[C@@H](NC(=O)[C@@H](NC(=O)[C@H](CCC(=O)O)NC(=O)[C@H](CCCCN)NC(=O)CNC(=O)[C@H](C)N)[C@@H](C)O)[C@@H](C)CC)[C@@H](C)CC)C(=O)N[C@@H](C)C(=O)N[C@@H](Cc1c[nH]c2ccccc12)C(=O)O [AGKETIFQRLKKKIQEKGKRAWIAW]

MIC [33]: ≥ 200 µM
SMILES: NCCCC[C@H](NC(=O)[C@H](CCCCN)NC(=O)[C@H](Cc1c[nH]c2ccccc12)NC(=O)[C@H](CCCCN)NC(=O)[C@H](CCCN=C(N)N)NC(=O)[C@H](CCCN=C(N)N)NC(=O)[C@H](CCCCN)NC(=O)[C@@H](N)CCCN=C(N)N)C(N)=O [RKRRKWKK]

MIC [34]: 15.1 µM (≈ 32 µg/mL)
MIC [35]: 60.2 µM (≈ 128 µg/mL)
MIC [36]: ≥ 60.2 µM
MIC [37]: ≥ 60.2 µM
MIC [38]: 30.1 µM (≈ 64 µg/mL)
SMILES: CC[C@H](C)[C@H](NC(=O)[C@H](Cc1c[nH]c2ccccc12)NC(=O)[C@H](CCCCN)NC(=O)[C@@H](N)CC(C)C)C(=O)NCC(=O)N[C@@H](CCCCN)C(=O)N[C@@H](CCCCN)C(=O)N[C@H](C(=O)N[C@@H](Cc1c[nH]c2ccccc12)C(=O)N[C@@H](CCCN=C(N)N)C(=O)N[C@H](C(=O)NCC(=O)N[C@@H](Cc1c[nH]c2ccccc12)C(=O)N[C@@H](CC(N)=O)C(=O)N[C@@H](Cc1c[nH]c2ccccc12)C(=O)N[C@@H](CCCN=C(N)N)C(=O)O)C(C)C)[C@@H](C)CC [LKWIGKKIWRVGWNWR]

MIC [39]: 41.8 µM (≈ 128 µg/mL)
MIC [5]: 167 µM (≈ 512 µg/mL)
MIC [40]: 5.22 µM (≈ 16 µg/mL)
MIC [41]: 20.9 µM (≈ 64 µg/mL)
SMILES: CC[C@H](C)[C@H](NC(=O)[C@H](CO)NC(=O)[C@H](Cc1ccccc1)NC(=O)[C@H](CC(C)C)NC(=O)CNC(=O)CNC(=O)[C@@H](NC(=O)[C@@H](NC(=O)[C@H](Cc1cnc[nH]1)NC(=O)[C@H](Cc1cnc[nH]1)NC(=O)[C@@H](NC(=O)[C@@H](N)Cc1ccccc1)[C@@H](C)CC)[C@@H](C)CC)[C@@H](C)CC)C(=O)NCC(=O)N[C@@H](CCCCN)C(=O)N[C@H](C(=O)N[C@H](C(=O)N[C@@H](Cc1cnc[nH]1)C(=O)N[C@@H](CCCN=C(N)N)C(=O)N[C@@H](CC(C)C)C(=O)N[C@H](C(=O)N[C@@H](CCCN=C(N)N)C(=O)N[C@@H](CCCN=C(N)N)C(=O)N[C@@H](CCCN=C(N)N)C(=O)N[C@@H](CCCN=C(N)N)C(=O)N[C@@H](CCCN=C(N)N)C(=O)O)[C@@H](C)CC)[C@@H](C)CC)[C@@H](C)CC [FIHHIIGGLFSIGKIIHRLIRRRRR]
